Measurements reported in patent US11325899B2, “Benzofurane and benzothiophene derivatives as PGE2 receptor modulators” (IDORSIA PHARMACEUTICALS LTD, priority 2017, dated 2022).

Experiments:
EP4 receptor = biological target: T1, EP4 receptor (Homo sapiens, UniProt P35408); assay: hEP4 cAMP assay (BT549 breast cancer cells, HTRF cAMP, PGE2 stimulation); type: cell-based; conditions: antagonistic activity, PGE2 6 nM (EC80)
T1 construct: BT549 breast cancer cells, express high endogenous EP4 levels and very low EP2 levels; host or cells: BT549 breast cancer cells
Procedure, shortened: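 BT549 cells, with endogenous EP4 and very low EP2, were preincubated 45 min at room temperature with compound in HBSS/HEPES/BSA buffer with 2 mM IBMX. They were then stimulated 30 min with 6 nM PGE2 (EC80). cAMP was measured by HTRF competitive immunoassay against a calibrator; IC50 from duplicate dose-response as % of DMSO control.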

PTGER2 (EP2) = biological target: T2, PTGER2 (EP2) (Homo sapiens, UniProt P43116); assay: hEP2 b-arrestin assay (PathHunter HEK 293 PTGER2 b-arrestin cells); type: cell-based; conditions: antagonistic activity, beta-arrestin assay; read-out: hEP2 b-arr IC50
T2 construct: host or cells: HEK 293 (PathHunter PTGER2 b-arrestin cell line)
Procedure, shortened: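 Antagonism measured as inhibition of PGE2-driven β-arrestin 2 recruitment (enzyme fragment complementation, luminescence) in engineered HEK293 EP2 cells. Agonist: 5 μM PGE2, ~EC80, 120 min at 37 °C after 15 min compound preincubation; test range 10 μM-2 nM or 1 μM-0.2 nM, duplicates, IC50 fitted.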

T2 sequence (P43116 whole entry): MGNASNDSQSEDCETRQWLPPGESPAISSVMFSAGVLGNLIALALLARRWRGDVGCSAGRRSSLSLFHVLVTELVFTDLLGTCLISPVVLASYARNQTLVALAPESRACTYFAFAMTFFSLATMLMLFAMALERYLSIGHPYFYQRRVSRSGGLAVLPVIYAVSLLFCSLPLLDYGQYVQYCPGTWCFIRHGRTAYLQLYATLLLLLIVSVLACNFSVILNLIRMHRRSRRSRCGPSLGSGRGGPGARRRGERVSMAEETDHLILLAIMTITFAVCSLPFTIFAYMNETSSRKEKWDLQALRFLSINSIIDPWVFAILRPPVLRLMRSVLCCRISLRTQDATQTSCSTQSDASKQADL
T1 sequence (P35408 whole entry): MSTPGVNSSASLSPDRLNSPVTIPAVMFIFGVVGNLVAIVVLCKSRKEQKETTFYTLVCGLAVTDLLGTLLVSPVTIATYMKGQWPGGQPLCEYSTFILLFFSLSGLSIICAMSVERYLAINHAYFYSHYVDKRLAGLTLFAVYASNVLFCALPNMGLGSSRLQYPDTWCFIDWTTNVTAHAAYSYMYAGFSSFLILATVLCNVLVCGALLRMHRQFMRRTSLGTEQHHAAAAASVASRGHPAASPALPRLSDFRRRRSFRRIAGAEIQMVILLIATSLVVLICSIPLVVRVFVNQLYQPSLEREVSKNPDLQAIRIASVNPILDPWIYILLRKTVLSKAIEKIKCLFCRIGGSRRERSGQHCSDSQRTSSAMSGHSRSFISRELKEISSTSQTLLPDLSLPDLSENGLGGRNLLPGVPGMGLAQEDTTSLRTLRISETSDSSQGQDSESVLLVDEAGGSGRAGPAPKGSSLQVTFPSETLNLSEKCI

SMILES | IC50 (EP4 receptor) [nM] | IC50 (PTGER2 (EP2)) [nM]
CCOc1cc(-c2cc(NCCc3c(C)oc4c(OC)cc(Cl)cc34)ncn2)ccc1OCC(=O)O [Example 121, (4-{6-[2-(5-Chloro-7-methoxy-2-methyl-benzofuran-3-yl)-ethylamino]-pyrimidin-4-yl}-2-ethoxy-phenoxy)-acetic acid] | 129 | 27
CCOc1cc(-c2cc(NCCc3c(C)sc4c(C)cccc34)ncn2)ccc1OCC(=O)O [Example 122, (4-{6-[2-(2,7-Dimethyl-benzo[b]thiophen-3-yl)-ethylamino]-pyrimidin-4-yl}-2-ethoxy-phenoxy)-acetic acid] | 136 | 14
CCCCOc1cc(-c2cc(NCCc3c(C)sc4c(C)cc(F)cc34)ncn2)ccc1C(=O)O [Example 127, 2-Butoxy-4-{6-[2-(5-fluoro-2,7-dimethyl-benzo[b]thiophen-3-yl)-ethylamino]-pyrimidin-4-yl}-benzoic acid] | 873 | 16
Cc1oc2ccccc2c1CCNc1cc(-c2ccc(C(=O)O)c(SC3CCC3)c2)ncn1 [Example 129, 2-Cyclobutylsulfanyl-4-{6-[2-(2-methyl-benzofuran-3-yl)-ethylamino]-pyrimidin-4-yl}-benzoic acid] | 795 | 6
Cc1sc2c(C)cccc2c1CCNc1cc(-c2ccc(C(=O)O)c(SC3CCC3)c2)ncn1 [Example 130, 2-Cyclobutylsulfanyl-4-{6-[2-(2,7-dimethyl-benzo[b]thiophen-3-yl)-ethylamino]-pyrimidin-4-yl}-benzoic acid] | 980 | 12
Cc1sc2c(C)cccc2c1CCNc1cc(-c2ccc(C(=O)O)c(SC3COC3)c2)ncn1 [Example 131, 4-{6-[2-(2,7-Dimethyl-benzo[b]thiophen-3-yl)-ethylamino]-pyrimidin-4-yl}-2-(oxetan-3-ylsulfanyl)-benzoic acid] | 625 | 12
O=C(O)c1ccc(-c2cc(NCCc3csc4ccccc34)ncn2)cc1OC1CCC1 [Example 132, 4-[6-(2-Benzo[b]thiophen-3-yl-ethylamino)-pyrimidin-4-yl]-2-cyclobutoxy-benzoic acid] | 166 | 58
COc1cc(Cl)cc2c(CCNc3cc(-c4ccc(C(=O)O)c(OC5CCC5)c4)ncn3)c(C)oc12 [Example 133, 4-{6-[2-(5-Chloro-7-methoxy-2-methyl-benzofuran-3-yl)-ethylamino]-pyrimidin-4-yl}-2-cyclobutoxy-benzoic acid] | 170 | 25
COc1ccc(F)c2c(CCNc3cc(-c4ccc(C(=O)O)c(OC5CCC5)c4)ncn3)c(C)sc12 [Example 134, 2-Cyclobutoxy-4-{6-[2-(4-fluoro-7-methoxy-2-methyl-benzo[b]thiophen-3-yl)-ethylamino]-pyrimidin-4-yl}-benzoic acid] | 194 | 27
COc1ccc(Cl)c2c(CCNc3cc(-c4ccc(C(=O)O)c(OC5CCC5)c4)ncn3)c(C)sc12 [Example 135, 4-{6-[2-(4-Chloro-7-methoxy-2-methyl-benzo[b]thiophen-3-yl)-ethylamino]-pyrimidin-4-yl}-2-cyclobutoxy-benzoic acid] | 198 | 14
Cc1sc2c(C)ccc(F)c2c1CCNc1cc(-c2ccc(C(=O)O)c(OC3CCC3)c2)ncn1 [Example 136, 2-Cyclobutoxy-4-{6-[2-(4-fluoro-2,7-dimethyl-benzo[b]thiophen-3-yl)-ethylamino]-pyrimidin-4-yl}-benzoic acid] | 411 | 13
Cc1oc2c(Cl)cccc2c1CCNc1cc(-c2ccc(C(=O)O)c(OC3CCC3)c2)ncn1 [Example 137, 4-{6-[2-(7-Chloro-2-methyl-benzofuran-3-yl)-ethylamino]-pyrimidin-4-yl}-2-cyclobutoxy-benzoic acid] | 423 | 15
Cc1sc2c(C)cc(F)cc2c1CCNc1cc(-c2ccc(C(=O)O)c(OC3CCC3)c2)ncn1 [Example 138, 2-Cyclobutoxy-4-{6-[2-(5-fluoro-2,7-dimethyl-benzo[b]thiophen-3-yl)-ethylamino]-pyrimidin-4-yl}-benzoic acid] | 478 | 14
COc1ccc(F)c2c(CCNc3cc(-c4ccc(C(=O)O)c(OC5CCC5)c4)ncn3)c(C)oc12 [Example 139, 2-Cyclobutoxy-4-{6-[2-(4-fluoro-7-methoxy-2-methyl-benzofuran-3-yl)-ethylamino]-pyrimidin-4-yl}-benzoic acid] | 481 | 51
Cc1oc2c(C)cc(F)cc2c1CCNc1cc(-c2ccc(C(=O)O)c(OC3CCC3)c2)ncn1 [Example 140, 2-Cyclobutoxy-4-{6-[2-(5-fluoro-2,7-dimethyl-benzofuran-3-yl)-ethylamino]-pyrimidin-4-yl}-benzoic acid] | 580 | 37
COc1cc(F)c(F)c2c(CCNc3cc(-c4ccc(C(=O)O)c(OC5CCC5)c4)ncn3)c(C)oc12 [Example 141, 2-Cyclobutoxy-4-{6-[2-(4,5-difluoro-7-methoxy-2-methyl-benzofuran-3-yl)-ethylamino]-pyrimidin-4-yl}-benzoic acid] | 582 | 140
CCOc1cc(-c2cc(NCCc3c(C)sc4c(C)cc(F)cc34)ncn2)ccc1-c1nnn[nH]1 [Example 142, {6-[3-Ethoxy-4-(1H-tetrazol-5-yl)-phenyl]-pyrimidin-4-yl}-[2-(5-fluoro-2,7-dimethyl-benzo[b]thiophen-3-yl)-ethyl]-amine] | 105 | 12
CCOc1cc(-c2cc(NCCc3c(C)sc4c(C)cc(F)cc34)ncn2)ccc1OCCC(=O)O [Example 143, 3-(2-Ethoxy-4-{6-[2-(5-fluoro-2,7-dimethyl-benzo[b]thiophen-3-yl)-ethylamino]-pyrimidin-4-yl}-phenoxy)-propionic acid] | 115 | 52
CCCCOc1cc(-c2cc(NCCc3c(C)sc4c(C)cc(F)cc34)ncn2)cc(F)c1C(=O)O [Example 144, 2-Butoxy-6-fluoro-4-{6-[2-(5-fluoro-2,7-dimethyl-benzo[b]thiophen-3-yl)-ethylamino]-pyrimidin-4-yl}-benzoic acid] | 112 | 26
COc1ccc(F)c2c(CCNc3cc(-c4ccc(C(=O)O)c(OC5CCC5)c4F)ncn3)c(C)sc12 [Example 146, 2-Cyclobutoxy-3-fluoro-4-{6-[2-(4-fluoro-7-methoxy-2-methyl-benzo[b]thiophen-3-yl)-ethylamino]-pyrimidin-4-yl}-benzoic acid] | 243 | 47
COc1cc(Cl)cc2c(CCNc3cc(-c4ccc(C(=O)O)c(OC5CCC5)c4F)ncn3)c(C)oc12 [Example 147, 4-{6-[2-(5-Chloro-7-methoxy-2-methyl-benzofuran-3-yl)-ethylamino]-pyrimidin-4-yl}-2-cyclobutoxy-3-fluoro-benzoic acid] | 889 | 213
Cc1sc2c(C)ccc(F)c2c1CCNc1cc(-c2cc(F)c(C(=O)O)c(OC3CCC3)c2)ncn1 [Example 148, 2-Cyclobutoxy-6-fluoro-4-{6-[2-(4-fluoro-2,7-dimethyl-benzo[b]thiophen-3-yl)-ethylamino]-pyrimidin-4-yl}-benzoic acid] | 238 | 30
COc1ccc(F)c2c(CCNc3cc(-c4cc(F)c(C(=O)O)c(OC5CCC5)c4)ncn3)c(C)sc12 [Example 149, 2-Cyclobutoxy-6-fluoro-4-{6-[2-(4-fluoro-7-methoxy-2-methyl-benzo[b]thiophen-3-yl)-ethylamino]-pyrimidin-4-yl}-benzoic acid] | 241 | 13
COc1cc(F)c(F)c2c(CCNc3cc(-c4cc(F)c(C(=O)O)c(OC5CCC5)c4)ncn3)c(C)oc12 [Example 150, 2-Cyclobutoxy-4-{6-[2-(4,5-difluoro-7-methoxy-2-methyl-benzofuran-3-yl)-ethylamino]-pyrimidin-4-yl}-6-fluoro-benzoic acid] | 450 | 109
COc1cc(Cl)cc2c(CCNc3cc(-c4cc(F)c(C(=O)O)c(OC5CCC5)c4)ncn3)c(C)oc12 [Example 151, 4-{6-[2-(5-Chloro-7-methoxy-2-methyl-benzofuran-3-yl)-ethylamino]-pyrimidin-4-yl}-2-cyclobutoxy-6-fluoro-benzoic acid] | 631 | 60
Cc1sc2c(C)cc(F)cc2c1CCNc1cc(-c2ccc(C(=O)O)c(OC3CCCC3)c2)ncn1 [Example 152, 2-Cyclopentyloxy-4-{6-[2-(5-fluoro-2,7-dimethyl-benzo[b]thiophen-3-yl)-ethylamino]-pyrimidin-4-yl}-benzoic acid] | 581 | 27
COc1ccc(Cl)c2c(CCNc3cc(-c4ccc(C(=O)O)c(OC5CCCC5)c4)ncn3)c(C)sc12 [Example 153, 4-{6-[2-(4-Chloro-7-methoxy-2-methyl-benzo[b]thiophen-3-yl)-ethylamino]-pyrimidin-4-yl}-2-cyclopentyloxy-benzoic acid] | 827 | 46
Cc1oc2c(C)cc(F)cc2c1CCNc1cc(-c2ccc(C(=O)O)c(OC3CCCC3)c2)ncn1 [Example 154, 2-Cyclopentyloxy-4-{6-[2-(5-fluoro-2,7-dimethyl-benzofuran-3-yl)-ethylamino]-pyrimidin-4-yl}-benzoic acid] | 901 | 47
